Measurements taken from paper PMC10897598, “TwinF interface inhibitor FP802 stops loss of motor neurons and mitigates disease progression in a mouse model of ALS” (Cell Reports Medicine, 2024).
Read-outs that look alike come from different tables or passages of the source.

What was measured:
[1] = system: human iPSC-derived forebrain organoids; assay: NMDA-induced neurotoxicity in human iPSC-derived forebrain organoids; type: cell-based; conditions: for IC50: Homo sapiens, NMDA 300 μM, read-out: IC50, protection against NMDA-induced neurotoxicity
Experimental: The generation of human-iPSC-derived forebrain organoids was carried out in accordance with the regulations of Heidelberg University. The sporadic ALS iPSC line and the SOD1^G94A ALS iPSC line were purchased from Cedars-Sinai (CS2XWCiALS-nxx and CS2RJViALS-nxx). The healthy control iPSC lines were from Dr. Jochen Utikal (DKFZ, Germany). Forebrain organoids were generated and maintained as described previously.[37]^,[45] Briefly, hiPSCs were dissociated into single cells by Accutase and aggregated in round bottom 96-microwell plates with 5 min centrifugation at 600 rpm. On the second day, hiPSC aggregates were collected and transferred into low attachment 35 mm dishes (24 aggregates/dish) and kept in neural induction medium (DMEM/F12 medium supplemented with 1× penicillin/streptomycin, 1× Normocin, 1× GlutaMAX, 1× N-2 supplement, 2× B27 without vitamin A, 500 nM dorsomorphin, 50 ng/mL recombinant human noggin, 10 μM SB431542, 2 μM IWP-2, 1 μM cyclopamine, and 0.1% β-mercaptoethanol) for 3 days with a daily medium change. Recombinant human FGF (10 ng/mL) was present in neural induction medium from day 4 to day 7 with one medium change on day 5.5. On day 7, neural induction medium was changed to proliferation medium (neurobasal medium supplemented with 1× GlutaMAX, 1× penicillin/streptomycin, 1× Normocin, 1× B27 without vitamin A, 10 ng/mL recombinant human FGF, 10 ng/mL recombinant human EGF, 2 μM IWP-2, and 1 μM cyclopamine) for two weeks with medium change every 2–3 days. In week 4–5, the proliferation medium was changed to differentiation medium (neurobasal medium supplemented with 1× GlutaMAX, 1× penicillin/streptomycin, 1× Normocin, 10 ng/mL recombinant human BDNF, and 10 ng/mL recombinant human NT-3) with medium change every 2–3 days. From week 6, the organoids were kept in the maturation medium (BrainPhys medium supplemented with 1× GlutaMAX, 1× penicillin/streptomycin, 1× Normocin) until week 18–20 when they were used for experiments.
The analysis of forebrain organoid cell types that undergo NMDA-induced cell death was done using immunostainings of cryosections of 20-week-old forebrain organoids with antibodies against the neuronal markers, NeuN and Myelin transcription factor 1 like (Myt1L) protein, and the astrocyte marker, glial fibrillary acidic protein (GFAP) using the following procedure. All organoids were washed with PBS twice and fixed using 4% paraformaldehyde in PBS for 30 min, followed by 24 h incubation with 30% sucrose solution in PBS. Organoids were snap frozen on dry ice in cryoprotectants and 30 μm cryosections were prepared for staining. […] Cells stained with NeuN, Myt1L, and Hoechst were automatically counted with ImageJ with the particle analyzer with a self-developed macro using the Binary-Watershed function, size exclusion was set at 60 μm^2. NeuN-positive and Myt1L-positive post-mitotic neurons were counted in confocal section z-stacks of whole organoids (5–8 organoids from 2 batches) with ImageJ with the particle analyzer with a self-developed macro using the Binary-Watershed function, size exclusion was set at 60 μm^2 and expressed as a percentage of total Hoechst-stained nuclei. GFAP staining was quantified by measuring the fluorescent signals of z-stacks of confocal sections of whole organoids (5–6 organoids from 2 batches) using ImageJ and expressed as arbitrary units. […]

[2] = system: 30 common targets; assay: Pharmacology safety screening, radioligand binding assays; conditions: 10 µM; significant = over 50% inhibition or stimulation
Experimental: Pharmacology safety of FP802 was evaluated in radio ligand binding assays carried out by Eurofins Panlabs Discovery Services Taiwan, Ltd. Significant responses are defined as over 50% inhibition or stimulation in the primary assays.
Table S1. Pharmacology safety profile of FP802. […]

Work on CCN(CCN)Cc1cccc(Cl)c1 [FP802] yielded an IC50 ([1]; SOD1G94A ALS organoids) of 9 µM, an IC50 ([1]; healthy control-1 organoids) of 26 µM and an IC50 ([1]; healthy control-2 organoids) of 15 µM. For the same molecule, the IC50 ([1]; sporadic ALS organoids) was 9.3 µM, the “NMDA-induced death of neurons in ALS patient-derived organoids” value ([1]; NMDA 300 μM 24 h, NeuN/Myt1L immunostaining and viability, dose-dependent) was “effectively blocked” and the “binding activities in radioligand binding safety panel” value [2] was “No significant binding activities”.
